Measurements: paper PMC10790229 (Journal of medicinal chemistry, 2023)

Assays:
Type in all cases: cell-based
[1] = tested on: HIV-2 ROD; test: Anti-HIV-2 activity in MT-4 cells; conditions: HIV-2 ROD; for EC50: read-out: EC50 ROD, 50% protection of MT-4 cells against HIV-induced cytotoxicity
[2] = tested on: HIV-1 IIIB; test: Anti-HIV-1 activity in MT-4 cells; conditions: MT-4 cells; for SI IIIB (CC50/EC50): HIV-1 IIIB
[3] = tested on: MT-4 cells; test: Cytotoxicity in uninfected MT-4 cells

Structure (SMILES): COc1ccc(-n2c([C@H](Cc3ccccc3)NC(=O)CN3CCN(S(=O)(=O)c4ccc([N+](=O)[O-])cc4)CC3=O)nc3ccccc3c2=O)cc1 [11a1, (S)-N-(1-(3-(4-Methoxyphenyl)-4-oxo-3,4-dihydroquinazolin-2-yl)-2-phenylethyl)-2-(4-((4-nitrophenyl)sulfonyl)-2-oxopiperazin-1-yl)acetamide]
- SI ROD (CC50/EC50) ([1]; MT-4 cells): >312.50
- SI IIIB (CC50/EC50) [2]: >119.05

Structure (SMILES): COc1ccc(-n2c([C@H](Cc3cc(F)cc(F)c3)NC(=O)CN3CCN(S(=O)(=O)c4ccc([N+](=O)[O-])cc4)CC3=O)nc3ccccc3c2=O)cc1 [11a2, (S)-N-(2-(3,5-Difluorophenyl)-1-(3-(4-methoxyphenyl)-4-oxo-3,4-dihydroquinazolin-2-yl)ethyl)-2-(4-((4-nitrophenyl)sulfonyl)-2-oxopiperazin-1-yl)acetamide]
- SI ROD (CC50/EC50) ([1]; MT-4 cells): >416.67
- EC50 [1]: 410 ± 40 nM
- SI IIIB (CC50/EC50) [2]: >320.51
- Ratio IIIB(EC50)/ROD(EC50) [2]: 1.29
- CC50 [3]: > 171000 nM

Structure (SMILES): COc1ccc(-n2c([C@H](Cc3ccccc3)NC(=O)CN3CCN(S(=O)(=O)c4ccc([N+](=O)[O-])cc4)CC3=O)nc3cc(Cl)ccc3c2=O)cc1 [11c1, (S)-N-(1-(7-Chloro-3-(4-methoxyphenyl)-4-oxo-3,4-dihydroquinazolin-2-yl)-2-phenylethyl)-2-(4-((4-nitrophenyl)sulfonyl)-2-oxopiperazin-1-yl)acetamide]
- SI ROD (CC50/EC50) ([1]; MT-4 cells): >403.23
- EC50 [1]: 420 ± 40 nM
- SI IIIB (CC50/EC50) [2]: >79.11
- Ratio IIIB(EC50)/ROD(EC50) [2]: 5.14
- CC50 [3]: > 171000 nM

Structure (SMILES): COc1ccc(-n2c([C@H](Cc3ccccc3)NC(=O)CN3CCN(S(=O)(=O)c4ccc([N+](=O)[O-])cc4)CC3=O)nc3cc(Br)ccc3c2=O)cc1 [11d1, (S)-N-(1-(7-Bromo-3-(4-methoxyphenyl)-4-oxo-3,4-dihydroquinazolin-2-yl)-2-phenylethyl)-2-(4-((4-nitrophenyl)sulfonyl)-2-oxopiperazin-1-yl)acetamide]
- SI ROD (CC50/EC50) ([1]; MT-4 cells): >446.43
- EC50 [1]: 360 ± 30 nM
- SI IIIB (CC50/EC50) [2]: >67.20
- Ratio IIIB(EC50)/ROD(EC50) [2]: 6.67
- CC50 [3]: > 161000 nM

Structure (SMILES): COc1ccc(-n2c([C@H](Cc3cc(F)cc(F)c3)NC(=O)CN3CCN(S(=O)(=O)c4ccc([N+](=O)[O-])cc4)CC3=O)nc3cc(Br)ccc3c2=O)cc1 [11d2, (S)-N-(1-(7-Bromo-3-(4-methoxyphenyl)-4-oxo-3,4-dihydroquinazolin-2-yl)-2-(3,5-difluorophenyl)ethyl)-2-(4-((4-nitrophenyl)sulfonyl)-2-oxopiperazin-1-yl)acetamide]
- SI ROD (CC50/EC50) ([1]; MT-4 cells): >260.42
- EC50 [1]: 590 ± 200 nM
- SI IIIB (CC50/EC50) [2]: >156.25
- Ratio IIIB(EC50)/ROD(EC50) [2]: 1.68
- CC50 [3]: > 154000 nM

Structure (SMILES): COc1ccc(-n2c([C@H](Cc3ccccc3)NC(=O)CN3CCN(S(=O)(=O)c4ccc([N+](=O)[O-])cc4)CC3=O)nc3cc(S(C)(=O)=O)ccc3c2=O)cc1 [11e1, (S)-N-(1-(3-(4-Methoxyphenyl)-7-(methylsulfonyl)-4-oxo-3,4-dihydroquinazolin-2-yl)-2-phenylethyl)-2-(4-((4-nitrophenyl)-sulfonyl)-2-oxopiperazin-1-yl)acetamide]
- SI ROD (CC50/EC50) ([1]; MT-4 cells): >500.00
- EC50 [1]: 320 ± 30 nM
- SI IIIB (CC50/EC50) [2]: >58.14
- Ratio IIIB(EC50)/ROD(EC50) [2]: 8.66
- CC50 [3]: > 161000 nM

Structure (SMILES): COc1ccc(-n2c([C@H](Cc3cc(F)cc(F)c3)NC(=O)CN3CCN(S(=O)(=O)c4ccc([N+](=O)[O-])cc4)CC3=O)nc3cc(S(C)(=O)=O)ccc3c2=O)cc1 [11e2, (S)-N-(2-(3,5-Difluorophenyl)-1-(3-(4-methoxyphenyl)-7-(methylsulfonyl)-4-oxo-3,4-dihydroquinazolin-2-yl)ethyl)-2-(4-((4-nitrophenyl)sulfonyl)-2-oxopiperazin-1-yl)acetamide]
- SI ROD (CC50/EC50) ([1]; MT-4 cells): >378.79
- EC50 [1]: 410 ± 50 nM
- SI IIIB (CC50/EC50) [2]: >83.89
- Ratio IIIB(EC50)/ROD(EC50) [2]: 4.49
- CC50 [3]: > 154000 nM

Structure (SMILES): COc1ccc(-n2c([C@H](Cc3ccccc3)NC(=O)CN3CCN(S(=O)(=O)c4ccc(N)cc4)CC3=O)nc3cc(F)ccc3c2=O)cc1 [12b1, (S)-2-(4-((4-Aminophenyl)sulfonyl)-2-oxopiperazin-1-yl)-N-(1-(7-fluoro-3-(4-methoxyphenyl)-4-oxo-3,4-dihydroquinazolin-2-yl)-2-phenylethyl)acetamide]
- SI ROD (CC50/EC50) ([1]; MT-4 cells): >1250.00
- EC50 [1]: 150 ± 30 nM
- SI IIIB (CC50/EC50) [2]: >223.21
- Ratio IIIB(EC50)/ROD(EC50) [2]: 5.47
- CC50 [3]: > 183000 nM

Structure (SMILES): COc1ccc(-n2c([C@H](Cc3cc(F)cc(F)c3)NC(=O)CN3CCN(S(=O)(=O)c4ccc(N)cc4)CC3=O)nc3cc(F)ccc3c2=O)cc1 [12b2, (S)-2-(4-((4-Aminophenyl)sulfonyl)-2-oxopiperazin-1-yl)-N-(2-(3,5-difluorophenyl)-1-(7-fluoro-3-(4-methoxyphenyl)-4-oxo-3,4-dihydroquinazolin-2-yl)ethyl)acetamide]
- SI ROD (CC50/EC50) ([1]; MT-4 cells): >1488.10
- EC50 [1]: 120 ± 30 nM
- SI IIIB (CC50/EC50) [2]: >568.18
- Ratio IIIB(EC50)/ROD(EC50) [2]: 2.58
- CC50 [3]: > 173000 nM

Structure (SMILES): COc1ccc(-n2c([C@H](Cc3cc(F)cc(F)c3)NC(=O)CN3CCN(S(=O)(=O)c4ccc(N)cc4)CC3=O)nc3cc(Cl)ccc3c2=O)cc1 [12c2, (S)-2-(4-((4-Aminophenyl)sulfonyl)-2-oxopiperazin-1-yl)-N-(1-(7-chloro-3-(4-methoxyphenyl)-4-oxo-3,4-dihydroquinazolin-2-yl)-2-(3,5-difluorophenyl)ethyl)acetamide]
- SI ROD (CC50/EC50) ([1]; MT-4 cells): >2083.33
- fold improvement of anti-HIV-2 potency over PF74 ([1]; MT-4 cells): 47 fold
- EC50 [1]: 80 ± 10 nM
- SI IIIB (CC50/EC50) [2]: >1250.00
- Ratio IIIB(EC50)/ROD(EC50) [2]: 1.75
- CC50 [3]: > 170000 nM

Structure (SMILES): O=C(CN1CCN(S(=O)(=O)c2ccc([N+](=O)[O-])cc2)CC1=O)N[C@@H](Cc1ccccc1)c1nc2ccccc2c(=O)n1-c1ccc(S(=O)(=O)N2CCOCC2)cc1 [20a1, (S)-N-(1-(3-(4-(Morpholinosulfonyl)phenyl)-4-oxo-3,4-dihydroquinazolin-2-yl)-2-phenylethyl)-2-(4-((4-nitrophenyl)-sulfonyl)-2-oxopiperazin-1-yl)acetamide]
- SI ROD (CC50/EC50) ([1]; MT-4 cells): >416.67
- EC50 [1]: 370 ± 90 nM
- SI IIIB (CC50/EC50) [2]: >126.26
- Ratio IIIB(EC50)/ROD(EC50) [2]: 3.27
- CC50 [3]: > 153000 nM

Structure (SMILES): O=C(CN1CCN(S(=O)(=O)c2ccc([N+](=O)[O-])cc2)CC1=O)N[C@@H](Cc1cc(F)cc(F)c1)c1nc2ccccc2c(=O)n1-c1ccc(S(=O)(=O)N2CCOCC2)cc1 [20a2, (S)-N-(2-(3,5-Difluorophenyl)-1-(3-(4-(morpholinosulfonyl)-phenyl)-4-oxo-3,4-dihydroquinazolin-2-yl)ethyl)-2-(4-((4-nitrophenyl)sulfonyl)-2-oxopiperazin-1-yl)acetamide]
- SI ROD (CC50/EC50) ([1]; MT-4 cells): >833.33
- EC50 [1]: 180 ± 50 nM
- SI IIIB (CC50/EC50) [2]: >892.86
- Ratio IIIB(EC50)/ROD(EC50) [2]: 0.89
- CC50 [3]: > 147000 nM

Structure (SMILES): O=C(CN1CCN(S(=O)(=O)c2ccc([N+](=O)[O-])cc2)CC1=O)N[C@@H](Cc1ccccc1)c1nc2ccccc2c(=O)n1-c1ccc(S(=O)(=O)N2CCS(=O)(=O)CC2)cc1 [20b1, (S)-N-(1-(3-(4-((1,1-Dioxidothiomorpholino)sulfonyl)phenyl)-4-oxo-3,4-dihydroquinazolin-2-yl)-2-phenylethyl)-2-(4-((4-nitrophenyl)sulfonyl)-2-oxopiperazin-1-yl)acetamide]
- SI ROD (CC50/EC50) ([1]; MT-4 cells): >198.41
- EC50 [1]: 730 ± 160 nM
- SI IIIB (CC50/EC50) [2]: >11.47
- Ratio IIIB(EC50)/ROD(EC50) [2]: 17.29
- CC50 [3]: > 145000 nM
